According to article PMC8776995 (Frontiers in Chemistry, 2022):
Several values for one entry are separate records, joined by “and”; a condition that tells them apart may be missing. Identical values can stand only once. Like-named read-outs stand apart in the source and are kept apart here.

What was measured:
PC-9 xenograft = test: In vivo antitumor activity, PC-9 xenograft in NSG mice; design: species or system mouse
Procedure: The mouse body mass was recorded as well.

H1975 cells = test: CCK-8 antiproliferation assay, H1975; settings: for Inhibitory efficacy: H1975 cells
Procedure: The compounds were dissolved in DMSO to make a 20 μM stock solution and diluted to the concentration of working solutions with complete growth medium before administration.
Cells were seeded in 96-well plates: 3,000–5,000 cells/well in 100 ul. One day after seeding, the test compounds at concentration between 1.0 and 16.0 μ M or 0.1% DMSO (as control) were added to cells in triplicate. 48 h later, CCK-8 was added and incubated the plate for 1–4 h in the incubator. The absorbance at 450 nm were measured using a microplate reader (Bio-Tek).

[1] = tested on: EGFR phosphorylation (Tyr1068) in H460 cells; test: Western blot, p-EGFR/EGFR in H460; settings: for p-EGFR/EGFR: band density ratio; for p-EGFR/EGFR relative to DMSO: ratio normalised to DMSO; for phosphorylation of EGFR (western blot): H460, especially at 10 μM
Procedure: We also performed western blot analysis to evaluate the impact of e4 and e12 on EGFR signaling in PC-9 and H460 cells.
H460 cells were seeded in six-well plates with serum-free medium overnight, and then treated complete medium containing 0.1% DMSO, various concentrations (0.1, 1 and 10 μM) of either compound e4 or e12 for 2 h, respectively. […] Then the H460 cells were treated with complete medium containing EGF (10 ng/ml) for 5 min. Then the cells were harvested and washed with PBS, centrifuged, resuspended in 100–200 μl of RIPA lysis buffer containing Protease and Phosphatase Inhibitor Cocktail (1X), and then centrifuged for 5 min at 12,000 rpm at 4°C. The supernatant was used for protein analysis. […] Then the membrane was washed 5 min (X3) and incubated at 1:3,000 dilution of anti-rabbit secondary antibodies or 1:1,000 dilution of anti-mouse secondary antibodies for 1 h at RT. After washing with TBST 5 min (X3), protein bands were developed by chemiluminescence. The protein levels were quantified by the gray values of the bands in the resulting images by ImageJ, and the control group was used as the standard. […] The PC-9 cells were harvested and analyzed as above.

[2] = Body mass of PC-9 tumor-bearing NSG mice after treatment; settings: for Change in body weight: individual animals
Procedure: PC-9 xenografts were established by subcutaneous transplantation of cancer cells into the flanks of NSG mice (male, 4–6-week old). […] Tumor volumes were measured using calipers and calculated with the formula: V = length × width^2/2. The mouse body mass was recorded as well. 19 days after inoculation, the mice were sacrificed and the tumors were harvested and weighed.

A549 cells = test: CCK-8 antiproliferation assay, A549; settings: for Inhibitory efficacy: A549 cells
[3] = 2uM, given as fraction, Repeat 1-3
[4] = 4uM, given as fraction, Repeat 1-3
[5] = 8uM, given as fraction, Repeat 1-3
[6] = 16uM, given as fraction, Repeat 1-3
[7] = Homo sapiens, NCI-H1975, read-out: Inhibitory efficacy, H1975 cells, 2uM, given as fraction, Repeat 1-3
[8] = Homo sapiens, NCI-H1975, read-out: Inhibitory efficacy, H1975 cells, 4uM, given as fraction, Repeat 1-3
[9] = Homo sapiens, NCI-H1975, read-out: Inhibitory efficacy, H1975 cells, 8uM, given as fraction, Repeat 1-3
[10] = Homo sapiens, NCI-H1975, read-out: Inhibitory efficacy, H1975 cells, 16uM, given as fraction, Repeat 1-3
[11] = Homo sapiens, A549, 48 h, read-out: IC50 (μM) A549, CCK-8, 48 h, average ± SD of three independent experiments
[12] = Homo sapiens, A549, read-out: Inhibitory efficacy, A549 cells, 4uM, given as fraction, Repeat 1-3
[13] = Homo sapiens, A549, read-out: Inhibitory efficacy, A549 cells, 8uM, given as fraction, Repeat 1-3
[14] = Homo sapiens, A549, read-out: Inhibitory efficacy, A549 cells, 16uM, given as fraction, Repeat 1-3
[15] = read-out: IC50 (μM) A549, CCK-8, 48 h, average ± SD of three independent experiments
[16] = 1uM, given as fraction, Repeat 1-3

## COCCOc1cc2ncnc(Nc3cccc(-c4cn(Cc5cc(Br)cc(Br)c5)nn4)c3)c2cc1OCCOC [e4, [6,7-Bis-(2-methoxy-ethoxy)-quinazolin-4-yl]-{3-[1-(3,5-dibromo-benzyl)-1H-[1,2,3]triazol-4-yl]-phenyl}-amine]
PC-9 xenograft; Day13, group mean
  tumor volume mean: 63.4029 mm3
PC-9 xenograft; Day13, individual animals
  tumor length: 5.08 mm and 6.5 mm and 4.8 mm and 6.3 mm and 6.04 mm and 5.8 mm and 7.4 mm and 6.1 mm
  tumor volume: 59.9938 mm3 and 60.0925 mm3 and 44.376 mm3 and 55.566 mm3 and 68.426 mm3 and 38.5875 mm3 and 71.3446 mm3 and 78.292 mm3 and 93.9476 mm3
  tumor width: 4.86 mm and 4.3 mm and 4.2 mm and 4.76 mm and 3.5 mm and 4.96 mm and 4.6 mm and 5.55 mm
PC-9 xenograft; Day15, group mean
  tumor volume mean: 44.2866 mm3
PC-9 xenograft; Day15, individual animals
  tumor length: 3.97 mm and 5.56 mm and 5.73 mm and 4.91 mm and 4.11 mm and 5.48 mm and 4.95 mm and 6.93 mm and 5.72 mm
  tumor volume: 23.9012 mm3 and 57.8062 mm3 and 55.2146 mm3 and 35.078 mm3 and 33.0446 mm3 and 32.9921 mm3 and 21.979 mm3 and 91.1881 mm3 and 47.3756 mm3
  tumor width: 3.47 mm and 4.56 mm and 4.39 mm and 3.78 mm and 4.01 mm and 2.98 mm and 5.13 mm and 4.07 mm
PC-9 xenograft; Day17, group mean
  tumor volume mean: 35.7355 mm3
PC-9 xenograft; Day17, individual animals
  tumor length: 3.7 mm and 7.6 mm and 4.76 mm and 5.8 mm and 4.94 mm and 4.9 mm and 5.1 mm and 4.6 mm
  tumor volume: 17.7785 mm3 and 54.872 mm3 and 38.4618 mm3 and 25.4086 mm3 and 28.0515 mm3 and 47.432 mm3 and 38.7855 mm3 and 30.2575 mm3 and 40.572 mm3
  tumor width: 3.1 mm and 3.8 mm and 4.02 mm and 2.96 mm and 3.37 mm and 4.4 mm and 3.9 mm and 3.5 mm and 4.2 mm
PC-9 xenograft; Day19, group mean
  tumor volume mean: 22.669 mm3
PC-9 xenograft; Day19, individual animals
  Tumor weight: 0.07 g and 0.02 g and 0.04 g and 0.03 g
  tumor length: 4.55 mm and 5.74 mm and 3.59 mm and 2.83 mm and 2.52 mm and 3 mm and 4.51 mm and 5.54 mm and 4.24 mm
  tumor volume: 7.871 mm3 and 60.7292 mm3 and 20.5068 mm3 and 2.813 mm3 and 5.663 mm3 and 9.6774 mm3 and 39.0241 mm3 and 23.1353 mm3 and 34.6018 mm3
  tumor width: 1.86 mm and 4.6 mm and 3.38 mm and 1.41 mm and 2.12 mm and 2.54 mm and 4.16 mm and 2.89 mm and 4.04 mm
H1975 cells; [3]
  Inhibitory efficacy: 0.363 and 0.4168
H1975 cells; [4]
  Inhibitory efficacy: 0.3676 and 0.4565
H1975 cells; [5]
  Inhibitory efficacy: 0.9443
H1975 cells; [6]
  Inhibitory efficacy: 0.9548 and 0.9653
H1975 cells; [7]
  inhibition at 2 µM: 30.2%
H1975 cells; [8]
  inhibition at 4 µM: 39.3%
H1975 cells; [9]
  inhibition at 8 µM: 92.2%
H1975 cells; [10]
  inhibition at 16 µM: 96.1%
[1]; H460, 0.1 uM
  p-EGFR/EGFR: 0.8093
  p-EGFR/EGFR relative to DMSO: 0.9725
[1]; H460, 1 uM
  p-EGFR/EGFR: 0.8837
  p-EGFR/EGFR relative to DMSO: 1.062
[1]; H460, 10 uM
  p-EGFR/EGFR: 0.3865
  p-EGFR/EGFR relative to DMSO: 0.4645
[1]
  phosphorylation of EGFR (western blot): suppressed
[2]; Day13, individual animals
  Body weigh: 27 g and 25.6 g and 24.1 g and 27.3 g and 28.8 g
[2]; Day15, individual animals
  Body weigh: 25.7 g and 26.2 g and 25.9 g and 27.3 g and 29 g
[2]; Day15 vs previous weighing
  Change in body weight: -4.815% and 2.344% and 7.469% and 0% and 0.6944%
[2]; Day17, individual animals
  Body weigh: 26 g and 23.9 g and 26.1 g and 27.3 g and 29.1 g
[2]; Day17 vs previous weighing
  Change in body weight: 1.167% and -8.779% and 0.7722% and 0% and 0.3448%
[2]; Day19, individual animals
  Body weigh: 25.9 g and 26 g and 26.2 g and 27.1 g and 29.1 g
[2]; Day19 vs previous weighing
  Change in body weight: -0.3846% and 8.787% and 0.3831% and -0.7326% and 0%
A549 cells; [4]
  Inhibitory efficacy: 0.2144 and 0.2227
A549 cells; [5]
  Inhibitory efficacy: 0.7075 and 0.6166
A549 cells; [6]
  Inhibitory efficacy: 0.9444 and 0.9355
A549 cells; [11]
  IC50: < 10 µM
A549 cells; [12]
  inhibition at 4 µM: 35.6%
A549 cells; [13]
  inhibition at 8 µM: 75.6%
A549 cells; [14]
  inhibition at 16 µM: 94.8%
A549 cells; [15]
  IC50: 5.8 ± 0.78 µM

## COCCOc1cc2ncnc(Nc3cccc(-c4cn(-c5ccc(C)cc5)nn4)c3)c2cc1OCCOC [e12, [6,7-Bis-(2-methoxy-ethoxy)-quinazolin-4-yl]-[3-(1-p-tolyl-1H-[1,2,3]triazol-4-yl)-phenyl]-amine]
H1975 cells; [16]
  Inhibitory efficacy: 0.1624 and 0.1374
H1975 cells; [3]
  Inhibitory efficacy: 0.2034 and 0.2177
H1975 cells; [4]
  Inhibitory efficacy: 0.2052 and 0.2481
H1975 cells; [5]
  Inhibitory efficacy: 0.4158 and 0.4836
H1975 cells; [6]
  Inhibitory efficacy: 0.8709 and 0.8763
H1975 cells; Homo sapiens, NCI-H1975, 48 h, read-out: IC50 (μM) H1975, CCK-8, 48 h, average ± SD of three independent experiments
  IC50: < 10 µM
H1975 cells; Homo sapiens, NCI-H1975, read-out: Inhibitory efficacy, H1975 cells, 1uM, given as fraction, Repeat 1-3
  inhibition at 1 µM: 18.4%
H1975 cells; [7]
  inhibition at 2 µM: 28.9%
H1975 cells; [8]
  inhibition at 4 µM: 23.2%
H1975 cells; [9]
  inhibition at 8 µM: 40.7%
H1975 cells; [10]
  inhibition at 16 µM: 87.6%
H1975 cells; read-out: IC50 (μM) H1975, CCK-8, 48 h, average ± SD of three independent experiments
  IC50: 7.25 ± 0.45 µM
other
  melting point: 95 to 98 °C
[1]; H460, 0.1 uM
  p-EGFR/EGFR: 0.7896
  p-EGFR/EGFR relative to DMSO: 0.9489
[1]; H460, 1 uM
  p-EGFR/EGFR: 0.75
  p-EGFR/EGFR relative to DMSO: 0.9013
[1]; H460, 10 uM
  p-EGFR/EGFR: 0.166
  p-EGFR/EGFR relative to DMSO: 0.1995
[1]
  phosphorylation of EGFR (western blot): suppressed
A549 cells; [16]
  Inhibitory efficacy: 0.1461 and 0.1139
A549 cells; [3]
  Inhibitory efficacy: 0.3261 and 0.1967
A549 cells; [4]
  Inhibitory efficacy: 0.4378 and 0.3806
A549 cells; [5]
  Inhibitory efficacy: 0.5646 and 0.5114
A549 cells; [6]
  Inhibitory efficacy: 0.7887 and 0.7821
A549 cells; [11]
  IC50: < 10 µM
A549 cells; Homo sapiens, A549, read-out: Inhibitory efficacy, A549 cells, 1uM, given as fraction, Repeat 1-3
  inhibition at 1 µM: 9.61%
A549 cells; Homo sapiens, A549, read-out: Inhibitory efficacy, A549 cells, 2uM, given as fraction, Repeat 1-3
  inhibition at 2 µM: 26.8%
A549 cells; [12]
  inhibition at 4 µM: 37.9%
A549 cells; [13]
  inhibition at 8 µM: 51.9%
A549 cells; [14]
  inhibition at 16 µM: 78.5%
A549 cells; [15]
  IC50: 5.91 ± 0.73 µM
